# According to PMC7605213 (Journal of medicinal chemistry, 2020):
# Values joined by “and” are separate entries in the source; they are usually repeats but may differ in a detail not shown here. Equal entries are not always repeated. “Also recorded” adds a separate entry of the source. Marks after values point to notes of the source that are not given here.
# Experiments:
# [1] = test system: CQ-resistant Pf Dd2 strain; experiment: In vitro antiplasmodial activity, SYBR green I fluorescence, Dd2 strain; format: cell-based, Plasmodium falciparum; conditions: for activity against the Dd2 strain: aminoquinolines without the arylvinyl group; for EC50: read-out: EC50 against the Dd2 strain, CQ-resistant Pf Dd2, 72 h incubation; for resistance index (RI): RI = Dd2 EC50/3D7 EC50
# [2] = mouse liver microsomes, 15, 30 and 60 min, tentative assignment
# HepG2 cells = experiment: In vitro cytotoxicity assay; format: cell-based, human; conditions: for selectivity index (SI): SI = HepG2 EC50/Dd2 EC50
# CQ-sensitive 3D7 strain = experiment: In vitro antiplasmodial activity, SYBR green I fluorescence, 3D7 strain; format: cell-based, Plasmodium falciparum
# P. berghei ANKA 676m1cl1 = experiment: Assessment of the curative property; format: in vivo, BALB/c female mice
# [3] = test system: P. berghei ANKA strain expressing luciferase; experiment: In vivo antimalarial activity: elimination of existing infection; design: species or system Swiss-Webster female mice; conditions: 25 mg/kg daily p.o., monophosphate salts, treatment from 48 h post infection
# [4] = test system: synchronized P. falciparum Dd2 cultures; experiment: Stage-specific action; format: cell-based, Plasmodium falciparum; conditions: for stage-specific action on cell cycle progression: 5 × EC50 (DHA 50 nM, atovaquone 6.6 nM) added at 6, 18, 30, 42 HPI
# malaria infection = conditions: cited from earlier work
# [5] = mouse liver microsomes; values reported from the initial study ref 33; cited from earlier work
# [6] = test system: β-hematin crystal formation; experiment: β-Hematin formation inhibition; format: biochemical; conditions: 100 μM hemin, 16 h, 37 °C, highest concentration tested 200 μM
# [7] = test system: P. falciparum Dd2 cultures; experiment: Transmission electron microscopy of treated parasites; format: cell-based, Plasmodium falciparum; conditions: 5 × EC50 for 1.5, 3, 6 or 12 h
molecule,measurement,setting,value
"Cc1cc(NCCCCN(C)C)c2cc(Cl)ccc2n1 [6e, N^1-(6-Chloro-2-methylquinolin-4-yl)-N^4,N^4-dimethylbutane-1,4-diamine]",activity against the Dd2 strain,[1],inactive
"Fc1ccc(/C=C/c2cc(NCCCCN3CCOCC3)c3cc(Cl)ccc3n2)cc1 [compound 92, (E)-6-Chloro-2-(4-fluorostyryl)-N-(4-morpholinobutyl)quinolin-4-amine]",metabolites / metabolic pathway identified by LC–MS,[2],breakage of the morpholine ring
same,fold increase in cytotoxicity relative to compound 81,HepG2 cells; HepG2,4.8 fold
same,selectivity index (SI),HepG2 cells,> 1000
same,fold increase in inhibitory activity relative to compound 81,CQ-sensitive 3D7 strain,~6 fold
same,fold improved potency compared with counterpart 81,[1]; Dd2,~2 fold
"Fc1ccc(/C=C/c2cc(NCCCCN3CCOCC3)c3cc(Cl)ccc3n2)cc1F [compound 105, (E)-6-Chloro-2-(3,4-difluorostyryl)-N-(4-morpholinobutyl)-quinolin-4-amine]",metabolites / metabolic pathway identified by LC–MS,[2],breakage of the morpholine ring
same,fold more active than 103,[1]; Dd2,~7 fold
"CN(C)CCNc1cc(/C=C/c2ccc(C(F)(F)F)cc2)nc2ccc(Cl)cc12.O=P(O)(O)O [24s, (E)-N^1-(6-Chloro-2-(4-(trifluoromethyl)styryl)quinolin-4-yl)-N^2,N^2-dimethylethane-1,2-diamine Monophosphate Salt]",mice cured (no parasites in blood smears / 100% reduction of parasitemia),P. berghei ANKA 676m1cl1; 100 mg/kg p.o. once daily for 4 days,no parasites were detected and 5/5
same,body weight change,P. berghei ANKA 676m1cl1; 25 and 100 mg/kg p.o.,no significant weight loss
same,tolerability / signs of toxicity,P. berghei ANKA 676m1cl1; 25 and 100 mg/kg p.o.,well tolerated; also recorded: no apparent signs of toxicity
same,effect on malaria infection (bioluminescence day 7),[3],full protection and cure
"O=C1C(O)=C([C@H]2CC[C@H](c3ccc(Cl)cc3)CC2)C(=O)c2ccccc21 [atovaquone, reference compound]",stage-specific action on cell cycle progression,[4],no inhibition in late stages
"Cc1cc(NCCN(C)C)c2cc(Cl)ccc2n1 [6c, N^1-(6-Chloro-2-methylquinolin-4-yl)-N^2,N^2-dimethylethane-1,2-diamine]",activity against the Dd2 strain,[1],inactive
CCN(CC)CCCC(C)Nc1cc(/C=C/c2ccc([N+](=O)[O-])cc2)nc2ccc(OC)cc12 (stereo not drawn) [UCF501],mice cured of malaria infection,malaria infection; 100 mg/kg twice daily p.o. ref 33,4/5
same,metabolites / metabolic pathway identified by LC–MS,[2],"N-deethylation of the tertiary amine (monodeethyl UCF501 and UCF501-M1), O-demethylation (UCF501-M2), oxidation of styrylquinoline (UCF501-M3), and the reduction of the nitro group"
same,% remaining after 60 min,[5],47.8^a %
"CN(C)CCNc1cc(/C=C/c2ccc(F)cc2)nc2ccc(Cl)cc12.O=P(O)(O)O [29s, (E)-N^1-(6-Chloro-2-(4-fluorostyryl)quinolin-4-yl)-N^2,N^2-dimethylethane-1,2-diamine Monophosphate Salt]",effect on malaria infection (bioluminescence day 7),[3],effectively cleared the parasites
"Fc1ccc(/C=C/c2cc(NCCCCN3CCOCC3)c3cc(Cl)ccc3n2)c(F)c1 [compound 104, (E)-6-Chloro-2-(2,4-difluorostyryl)-N-(4-morpholinobutyl)-quinolin-4-amine]",fold more active than 103,[1]; Dd2,~2.5 fold
"CN1CCN(CCNc2cc(/C=C/c3ccc(F)cc3)nc3ccc(Cl)cc23)CC1 [compound 86, (E)-6-Chloro-2-(4-fluorostyryl)-N-(2-(4-methylpiperazin-1-yl)-ethyl)quinolin-4-amine]",inhibition of β-hematin formation,[6],showed inhibitory activity toward β-hematin formation in a concentration-dependent manner
same,metabolites / metabolic pathway identified by LC–MS,[2],Demethylated (86-M1) and oxidized products (86-M2)
same,stage-specific action on cell cycle progression,[4],stage-specific action at the late trophozoite phase
same,fold more potent than analogue 95,[1]; Dd2,~2.5 fold
"COc1ccc2nc(C)cc(NCCN(C)C)c2c1 [6a, N^1-(6-Methoxy-2-methylquinolin-4-yl)-N^2,N^2-dimethylethane-1,2-diamine]",activity against the Dd2 strain,[1],inactive
"CN(C)CCNc1cc(/C=C/c2ccc(C(F)(F)F)cc2)nc2ccc(Cl)cc12 [compound 24, (E)-N^1-(6-Chloro-2-(4-(trifluoromethyl)styryl)quinolin-4-yl)-N^2,N^2-dimethylethane-1,2-diamine]",inhibition of β-hematin formation,[6],very low activity against β-hematin crystal formation; also recorded: weaker inhibitory activity toward β-hematin formation as compared with CQ
same,metabolites / metabolic pathway identified by LC–MS,[2],N-demethylation was the primary metabolic route
same,selectivity index (SI),HepG2 cells,> 1000
same,ultrastructural effect (TEM),[7],appearance of membrane-bound structures within the parasite DV
same,stage-specific action on cell cycle progression,[4],"blocked when the compound was added at 6, 18, and 30 HPI"
same,effect on cell cycle when added at 42 HPI,"[4]; 5 × EC50, added at 42 HPI",did not affect the schizont maturation or the reinvasion of new merozoites
"FC(F)(F)c1ccc(/C=C/c2cc(NCCCCN3CCOCC3)c3cc(Cl)ccc3n2)cc1 [compound 98, (E)-6-Chloro-N-(4-morpholinobutyl)-2-(4-(trifluoromethyl)-Styryl)quinolin-4-amine]",metabolites / metabolic pathway identified by LC–MS,[2],breakage of the morpholine ring
"CN1CCN(CCNc2cc(/C=C/c3ccc(F)cc3)nc3ccc(Cl)cc23)CC1.O=P(O)(O)O [86s, (E)-6-Chloro-2-(4-fluorostyryl)-N-(2-(4-methylpiperazin-1-yl)-ethyl)quinolin-4-amine Monophosphate Salt]",effect on malaria infection (bioluminescence day 7),[3],ineffective
"CN(C)CCNc1cc(/C=C/c2ccc(F)cc2)nc2ccc(Cl)cc12 [compound 29, (E)-N^1-(6-Chloro-2-(4-fluorostyryl)quinolin-4-yl)-N^2,N^2-dimethylethane-1,2-diamine]",inhibition of β-hematin formation,[6],showed inhibitory activity toward β-hematin formation in a concentration-dependent manner
same,metabolites / metabolic pathway identified by LC–MS,[2],"monodemethylated (29-M1), bi-demethylated (29-M2), and oxidized products (29-M3)"
same,selectivity index (SI),HepG2 cells,> 1000
same,stage-specific action on cell cycle progression,[4],stage-specific action at the late trophozoite phase
(E)-4-(6-Chloro-2-(4-isocyanostyryl)quinolin-4-yl)morpholine [compound 64],EC50,[1],> 1000 nM
"Fc1cnccc1/C=C/c1cc(NCCCCN2CCOCC2)c2cc(Cl)ccc2n1 [compound 109, (E)-6-Chloro-2-(2-(3-fluoropyridin-4-yl)vinyl)-N-(4-morpholinobutyl)quinolin-4-amine]",fold less active than counterpart 93,[1]; Dd2,~7.5 fold
"Clc1ccc2nc(/C=C/c3ccncc3)cc(NCCCCN3CCOCC3)c2c1 [compound 93, (E)-6-Chloro-N-(4-morpholinobutyl)-2-(2-(pyridin-4-yl)vinyl)-quinolin-4-amine]",metabolites / metabolic pathway identified by LC–MS,[2],breakage of the morpholine ring
same,fold improved potency compared with counterpart 82,[1]; Dd2,~13 fold
same,EC50,[1],≤ 15 nM
"COc1ccc2nc(/C=C/c3ccc(OC)c(OC)c3)cc(NCCN(C)C)c2c1 [compound 13, (E)-N^1-(2-(3,4-Dimethoxystyryl)-6-methoxyquinolin-4-yl)-N^2,N^2-dimethylethane-1,2-diamine]",resistance index (RI),[1],≥ 1.5
"COc1ccc2nc(/C=C/c3cc(OC)c(OC)c(OC)c3)cc(NCCN(C)C)c2c1 [compound 14, (E)-N^1-(6-Methoxy-2-(3,4,5-trimethoxystyryl)quinolin-4-yl)-N^2,N^2-dimethylethane-1,2-diamine]",resistance index (RI),[1],≥ 1.5
"C[C@H]1[C@@H](O)O[C@@H]2O[C@@]3(C)CC[C@H]4[C@H](C)CC[C@@H]1[C@@]24OO3 [DHA, dihydroartemisinin, reference compound]",stage-specific action on cell cycle progression,[4],inhibition of all stages
"COc1ccc2nc(/C=C/c3ccccc3)cc(NCCN(C)C)c2c1 [compound 8, (E)-N^1-(6-Methoxy-2-styrylquinolin-4-yl)-N^2,N^2-dimethylethane-1,2-diaminei]",resistance index (RI),[1],≥ 1.5
"CN(C)CCNc1cc(/C=C/c2ccncc2)nc2ccc(Cl)cc12 [compound 50, (E)-N^1-(6-Chloro-2-(2-(pyridin-4-yl)vinyl)quinolin-4-yl)-N^2,N^2-dimethylethane-1,2-diamine]",resistance index (RI),[1],< 1
"CCN(CC)CCCC(C)Nc1ccnc2cc(Cl)ccc12 (stereo not drawn) [CQ, chloroquine, reference compound]",mean survival time (MSD),malaria infection; 30 mg/kg ref 61,24 days
same,inhibition of β-hematin formation,[6],strongly inhibited β-hematin formation
"COc1ccc(/C=C/c2cc(NCCN(C)C)c3cc(F)ccc3n2)cc1OC [compound 20, (E)-N^1-(2-(3,4-Dimethoxystyryl)-6-fluoroquinolin-4-yl)-N^2,N^2-dimethylethane-1,2-diamine]",fold improved activity compared to compound 13,[1]; Dd2,approximately 4.5 fold
"CN(C)CCNc1cc(/C=C/c2ccc(N(C)C)cc2)nc2ccc(Cl)cc12 [compound 28, (E)-N^1-(6-Chloro-2-(4-(dimethylamino)styryl)quinolin-4-yl)-N^2,N^2-dimethylethane-1,2-diamine]",resistance index (RI),[1],1.3
"COc1ccc2nc(/C=C/c3ccncc3)cc(NCCN(C)C)c2c1 [compound 41, (E)-N^1-(6-Methoxy-2-(2-(pyridin-4-yl)vinyl)quinolin-4-yl)-N^2,N^2-dimethylethane-1,2-diamine]",fold activity difference versus 2-pyridyl isomer 42,[1]; Dd2,up to 30 fold
